What all share (assay type): in vivo, human
A short description of data set [1]: Retrospective screen of chronic-care charts of obese hypertensive prisoners: random serum glucose, fasting lipid panel, blood pressure, weight. Particulars: for dose-dependent effects: chart study, discussion. The source says:
One-hundred ten (110) patient charts in chronic care for hypertension at an 1800-capacity prison were initially screened. The data included age, weight, height, ethnicity, medications, lipid panel results for glucose, triglycerides and HDL-C, and blood pressure. All known or previously diagnosed diabetics were excluded from the study.
For cases involving ACE inhibitor plus simvastatin, further analysis included evaluation of total cholesterol and calculated low density lipoprotein (LDL-C).
In order to evaluate the effects of simvastatin without ACE inhibitor, 5 additional charts were screened (increasing n to 13).
The data were analyzed with respect to random serum lab values including random serum glucose and fasting lipid panel (which included total cholesterol, HDL-C, TG, and the calculated LDL-C). […] In addition, a few charts were evaluated for temporal changes spanning chronic care visits including weight, mean arterial blood pressure, medication adjustments, and random serum values of HDL-C, triglycerides, and glucose. A two-tailed student t test was used to test for significance between 2 sample means. Linear regression analysis with F statistic was used to obtain goodness of fit. Only coefficients of determination (r2) of 0.1 or greater were reported. […] The level of significance used was a probability (P)<0.05.

Data set [2] in a line: Example 3: ACE inhibitor given to severely obese person with low HDL-C. To be noted: 75 mg/day, after 1 year; baseline 25 mg/dL. The method, then: A person presents with normal blood pressure (125/85), normal fasting glucose (105 mg/dL), and normal triglyceride (145 mg/dL). They are severely obese with a BMI of 40. […] The patient is considered to be at significant risk of developing metabolic syndrome and/or cardiovascular disease later in life. They are advised of the risk and of the beneficial effects of losing weight. After 1 year the patient advises that despite strenuous effects to lose weight, including dieting and exercise, their bodyweight remains the same. They are prescribed Captopril, 75 mg/day.

Data set [3] in a line: Example 2: ACE inhibitor given to non-obese person with low HDL-C. Particulars: 10 mg/day, after 1 year; baseline 30 mg/dL; without concomitant weight loss or lifestyle changes. The procedure:
A non-obese person presents for physical examination. […] The patient's parent is on anti-hypertension and anti-lipemic medications. The patient's older sibling is obese, hypertensive, and is being treated for coronary artery disease including recent placement of a cardiac stent for primary coronary artery blockage. […] Given the patients family history and low HDL-C […] risk of developing one or more metabolic conditions is considered high. They are prescribed Lisinopril, 10 mg/day.

Setting [4] is: FIG. 5A, controls without ACE inhibitor (with and without Hctz).
The mark [5] stands for this setting: FIG. 7, upper limit of normal daily dosages.
The mark [6] stands for this setting: one individual over 44 months (FIG. 3), captopril from 24 months, no anti-lipemic agent.

SMILES strings stand for the structures.

Regarding `NS(=O)(=O)c1cc2c(cc1Cl)NCNS2(=O)=O` [Hctz, Hydrochlorothiazide], the mean glucose in data set [1] (FIG. 5A, controls without ACE inhibitor (stated for both controls, with and without Hctz)) was more than 110 mg/dL. For the same molecule, in data set [1] (setting [4]), the “mean HDL-C” value was less than 42 mg/dL and the mean triglyceride was more than 159 mg/dL. For the same molecule, the “random serum glucose with age” value in data set [1] (FIG. 5C, absence of ACE inhibitor) is on record as “caused an age-related increase”. Besides, in data set [1] (presence of Hctz, n=15, no ACE inhibitor, no anti-lipemic), the “mean glucose +/-SEM” value stood at 105.8 ± 5.4 mg/dL. Moreover, the insulin-resistant state entry in data set [1] (with vs without Hctz, no ACE inhibitor) was “did not improve”.
Consider `C[C@H](CS)C(=O)N1CCC[C@H]1C(=O)O` [captopril], for which the “triglyceride, dose effect” value in data set [1] (FIG. 6B) is given as “significant (P <0.02) dose-dependent decrease”. In data set [1] (setting [5]), the “mean HDL-C” value was “parallel increases”, the mean glucose entry is reported as “parallel decreases” and the mean triglyceride result is reported as “parallel decreases”. Also, in data set [1], the dose-dependent effects entry is given as “dose-dependent effects”. Moreover, the HDL-C result in data set [1] (one individual followed over 44 months (FIG. 3), captopril introduced at 24 months, atenolol and hydrochlorothiazide discontinued, no anti-lipemic agent) is “increased”. In data set [1] (setting [6]), the glucose result is on record as “decreased”, the “mean arterial blood pressure” value is given as “decreased” and the serum triglyceride entry is “decreased”. The molecule further registered an HDL-C levels in data set [2] of 30 mg/dL.
As for `CCOC(=O)[C@H](CCc1ccccc1)N[C@@H](C)C(=O)N1CCC[C@H]1C(=O)O` [enalapril], in data set [1] (setting [5]), the “mean HDL-C” value is on record as “parallel increases”, the mean glucose result is “parallel decreases” and the mean triglyceride entry is on record as “parallel decreases”.
Regarding `C[C@H](N[C@@H](CCc1ccccc1)C(=O)O)C(=O)N1CCC[C@H]1C(=O)O` [enalaprilat], the “potency at preventing insulin resistance” value in data set [1] (compared with captopril, at presumptive therapeutically equivalent antihypertensive dosages) is “less potent”.
As to `NCCCC[C@H](N[C@@H](CCc1ccccc1)C(=O)O)C(=O)N1CCC[C@H]1C(=O)O` [lisinopril], in data set [1] (20 and 40 mg/day), the “dose effects with glucose, triglyceride and HDL-C” value is reported as “occurred”. Also, in data set [1] (FIG. 6A), the “HDL-C, dose effect” value is “significant (P<0.05) dose-dependent increase”. In data set [1] (setting [5]), the “mean HDL-C” value is “parallel increases”, the mean glucose result is recorded as “parallel decreases” and the mean triglyceride result is “parallel decreases”. In data set [1], the dose-dependent effects result is “dose-dependent effects”. Further, the HDL-C levels result in data set [3] is reported as “have risen”.
